Data reported in US4005217A, “Treatment of helminth infections with substituted phenyl-thiourea derivatives” (May & Baker Limited, priority 1970, dated 1977).
Counter-ions that a name gives are not always drawn. Like-named read-outs stand apart in the source and are kept apart here.

Assays:
T. colubriformis = assay: Activity in lambs by subcutaneous injection against 4th larval and adult stages; type: in vivo; settings: 75 mg/kg subcutaneous injection (18% w/v aqueous solution)
Method: (§1) b. 8 Worm-free lambs were each infected with H. contortus (approximately 7,000) and T. colubriformis ((approximately 15,000) infective larvae. After 7 days, 2 lambs were treated by subcutaneous injection of an 18% w/v aqueous solution at 75 mg/kg animal body weight of the test compound against the 4th larval stages of the worms. 28 Days after infection, 2 lambs were similarly treated against the adult stages of the worms. 35 Days after infection all 8 lambs were killed for post-mortem worm counts and the burdens of each worm species in the 4 treated animals compared with those in the remaining 4 untreated animals.

H. contortus = assay: as above; type: in vivo; settings: 75 mg/kg subcutaneous injection (18% w/v aqueous solution)
Method: as §1

Trichinella spiralis = assay: Activity against roundworms in mice; type: in vivo; settings: 100 mg/kg subcutaneous at 2 hours and 24 hours post infection, killed 5 days after second dose
Method: Mice were infected with approximately 100 Trichinella spiralis larvae each, by the oral route. The mice were randomised and allotted to two groups of 4 animals each. Doses of 1-methoxycarbonyl-3-(2-dimethylaminoacetamidophenyl)thiourea hydrochloride were then administered to one group by the subcutaneous route at 2 hours post infection and again at 24 hours post infection, one group of 4 animals being left untreated as a control. The doses given to the mice were 100 mg/kg animal body weight. All the mice were killed for postmortem examination 5 days after the second dose. The activity, expressed in terms of the percentage reduction in mean worm load of the treated group compared with the control group, was 95%.

[1] = test system: Nippostrongylus brasiliensis eggs; assay: In vitro activity against roundworms (egg hatching and larvae); type: cell-based; settings: 96 h, tested at 100, 10, 1 and 0.1 μg/ml, inhibited or delayed hatching of eggs, or killed, retarded growth or reduced activity of larvae during 4 days, read-out: M.I.C. (minimum inhibitory concentration)
[2] = test system: Nippostrongylus brasiliensis; assay: Test 2: activity against roundworms in rats, treatment 24 hours after infection, worm counts 6 days after dosing; type: in vivo; settings: Nippostrongylus brasiliensis, 144 h, rats, read-out: Percentage reduction in N.brasiliensis load
Haemonchus contortus = assay: Activity against mature adult stages in lambs, oral treatment (Table III); type: in vivo; settings: 120 h, 15 mg/kg oral, read-out: Mean percentage reduction in worm burdens, H.contortus
Method: (§2) ii. 20 Worm-free lambs were each infected with H. contortus (approximately 5,600), T. axei (approximately 9,300) and T. colubriformis (approximately 10,000) infective larvae. After 22 days, 16 lambs were treated orally with 15 mg/kg animal body weight of the 8 test compounds, i.e. 2 lambs per compound, against the mature adult stages of the worms. 27 Days after infection, all 20 lambs were killed for post-mortem worm counts and the burden of each worm species in the 16 treated animals compared with those in the remaining 4 untreated control animals.

Trichostrongylus axei = assay: as above; type: in vivo; settings: 120 h, 15 mg/kg oral, read-out: Mean percentage reduction in worm burdens, T.axei
Method: as §2

[3] = test system: Trichostrongylus colubriformis; assay: as above; type: in vivo; settings: 120 h, 15 mg/kg oral, read-out: Mean percentage reduction in worm burdens, T.colubriformis
Method: as §2

[4] = test system: Nippostrongylus brasiliensis; assay: Test 1: activity against roundworms in rats, treatment 6 days after infection (patent infection), worm counts 48 hours after treatment; type: in vivo; settings: Nippostrongylus brasiliensis, po, 48 h, Test 1, 1000 mg/kg oral, read-out: Percentage reduction in N.brasiliensis load

With `COC(=O)NC(=S)Nc1ccccc1NC(=O)CN(C)C` [1-methoxycarbonyl-3-(2-dimethylaminoacetamidophenyl)thiourea hydrochloride] the “Mean percentage reduction in worm burdens, T.colubriformis” value (T. colubriformis; 4th larval stage) was 99.9%, the “Mean percentage reduction in worm burdens, T.colubriformis” value (T. colubriformis; adult stage) was 99.7% and the “Mean percentage reduction in worm burdens, H.contortus” value (H. contortus; 4th larval stage) was 87.1%. For the same molecule, the “Mean percentage reduction in worm burdens, H.contortus” value (H. contortus; adult stage) was 95.3%, the “percentage reduction in mean worm load” value (Trichinella spiralis) was 95% and the MIC [1] was 1 µg/mL. The inhibition in vivo at 1000 mg/kg ([2]; Test 2, 1000 mg/kg oral) was 100%, the inhibition in vivo at 50 mg/kg ([2]; ip, Test 2, 50 mg/kg intraperitoneal) was 89% and the inhibition in vivo at 100 mg/kg ([2]; ip, Test 2, 100 mg/kg intraperitoneal) was 99%. For the same molecule, the inhibition in vivo at 250 mg/kg ([2]; ip, Test 2, 250 mg/kg intraperitoneal) was 96%, the inhibition in vivo at 60 mg/kg ([2]; sc, Test 2, 60 mg/kg subcutaneous) was 89.8% and the inhibition in vivo at 250 mg/kg ([2]; sc, Test 2, 250 mg/kg subcutaneous) was 99.5%. The inhibition in vivo at 500 mg/kg ([2]; sc, Test 2, 500 mg/kg subcutaneous) was 99.5%, the inhibition in vivo at 15 mg/kg (Haemonchus contortus) was 60% and the inhibition in vivo at 15 mg/kg (Trichostrongylus axei) was 78%. For the same molecule, the inhibition in vivo at 15 mg/kg [3] was 43.4% and the inhibition in vivo at 1000 mg/kg [4] was 91%.
